Data from patent publication US9187477B2, “Azabenzimidazole derivatives” (Boehringer Ingelheim International GmbH, priority 2013, dated 2015).

Assays:
[1] = Metabolic stability: metabolic degradation with pooled human liver microsomes; format: in vitro ADME; conditions: for c (control) (metabolic stability), remaining test compound after NADPH independent incubation: incubation without NADPH, after 2 hours, human liver microsomes; for t1/2 INVITRO: pooled human liver microsomes 1 mg/ml, 37° C., test compound 1 μM, NADPH 1 mM
Protocol: The metabolic degradation of the test compound is assayed at 37° C. with pooled human liver microsomes. The final incubation volume of 100 μl per time point contains TRIS buffer pH 7.6 at room temperature (0.1 M), magnesium chloride (5 mM), microsomal protein (1 mg/ml) and the test compound at a final concentration of 1 μM.
Following a short preincubation period at 37° C., the reactions were initiated by addition of beta-nicotinamide adenine dinucleotide phosphate, reduced form (NADPH, 1 mM) and terminated by transferring an aliquot into solvent after different time points.
Additionally, the NADPH-independent degradation was monitored in incubations without NADPH, terminated at 2 hour time point. The [%] remaining test compound after NADPH independent incubation is reflected by the parameter c (control) (metabolic stability). A c (control) (metabolic stability) value around 100% excludes cofactor independent activities (e.g. from esterases).
The quenched incubations are pelleted by centrifugation (10000 g, 5 min).
An aliquot of the supernatant is assayed by LC-MS/MS for the amount of parent compound. The half-life (t1/2 INVITRO) is determined by the slope of the semilogarithmic plot of the concentration-time profile.

[2] = target: AMPK complex 1 (containing alpha1beta1gamma1) (Homo sapiens (Human), UniProt Q13131+Q9Y478); test: in vitro AMPK activation assay (ADP-Glo Kinase Assay); format: biochemical; conditions: AMPK alpha1beta1gamma1, ATP 30 μM, peptide 1 μM, 60 min, room temperature
Description: Activated AMPK complex 1 (containing alpha1beta1gamma1) was obtained from baculovirus expression system. The gene encoding AMPK alpha1 was cloned into the pACG2T vector (BD Biosciences) to obtain a N-terminal Glutathion S transferase (GST)-fusion protein. The genes encoding AMPK beta1 and gamma1 were cloned into the p2Bac dual multiple cloning site vector (Invitrogen) with beta1 under the control of the p10 promoter and gamma1 under the control of the PH promoter. The transfer vectors containing AMPK were co-transfected individually with AcPNV BacMagic-3 DNA (EMD Millipore) in Sf9 cells and the recombinant baculoviruses were harvested after 5 days, followed by 3 rounds of amplification of the virus stock in Sf9 cells. AMPK (alpha1beta1gamma1) was expressed in High Five 5 cells by co-infection of recombinant alpha1 virus and recombinant beta1/gamma1 virus for 72 h at 27° C. Cells were harvested by centrifugation and lysed by 3 freeze/thaw cycles in PBS with 10% glycerol and protease inhibitor cocktail (Roche). After centrifugation AMPK a1b1g1 in the supernatant was captured by immobilized glutathione (GE Healthcare), impurities were washed away with PBS and AMPK alpha1beta1gamma1 was eluted with PBS containing 20 mM reduced gluthathione. The protein buffer was then exchanged to PBS with 10% glycerol and protein concentration was determined by UV absorbance.
The white 384-well Optiplates (cat. no. 6007299) were purchased from PerkinElmer. The V9101 ADP-Glo Kinase Assay and ultra pure ATP (V915A) was purchased from Promega. The substrate for AMPK (NH2-HMRSAMSGLHLVKRR_CONH2) was purchased from Upstate (12-355).
Compounds were tested in either serial dilutions or single dose concentrations. The serial compound dilutions were prepared in 100% DMSO automatically. The final DMSO concentration in the assay was 0.1%.
The Compound Stock Solutions were 10 mM in 100% DMSO. The compounds were solubilised at room temperature.
In the 384-well plates 1.25 ul of test compound in assay buffer was mixed with 1.25 ul of AMPK and 1.25 μl of the peptide (final concentration of 1 μM) and 1.25 μl of ATP (final concentration of 30 μM), both dissolved in assay buffer. This step was followed by an incubation time of 60 min. Then 5 μl of ADP Glo Reagent was added. This was followed by 40 min of incubation. Then 10 μl of Kinase Detection Reagent was admixed. The plates were sealed and after an incubation period of 30 min, the luminescence signal was measured in an Envision reader. All incubation steps were accomplished at room temperature.
Each assay microtiter plate contained wells with vehicle controls instead of compound (0.1% DMSO in water) as reference for the low signal (100% CTL, low signal), and wells with serial dilutions of AMP (final 30 μM) as reference for high signals.
The luminescence signal generated was proportional to the ADP concentration produced and was correlated with AMPK activity. The analysis of the data was performed by the calculation of the percentage of ATP consumption of AMPK in the presence of the test compound compared to the consumption of ATP in the presence of AMPK without compound. (RLU(sample)/RLU(low control))*100[RLU=relative luminescence units]
An activator of the AMPK enzyme gave values above 100% CTL.
EC50 values based on dose response curves are calculated with the XIFIT software using the 4 Parameter Logistic Model or Sigmoidal Dose-Response Model.

Chain of AMPK complex 1 (containing alpha1beta1gamma1) (Q13131 whole entry, the tested form may be a part): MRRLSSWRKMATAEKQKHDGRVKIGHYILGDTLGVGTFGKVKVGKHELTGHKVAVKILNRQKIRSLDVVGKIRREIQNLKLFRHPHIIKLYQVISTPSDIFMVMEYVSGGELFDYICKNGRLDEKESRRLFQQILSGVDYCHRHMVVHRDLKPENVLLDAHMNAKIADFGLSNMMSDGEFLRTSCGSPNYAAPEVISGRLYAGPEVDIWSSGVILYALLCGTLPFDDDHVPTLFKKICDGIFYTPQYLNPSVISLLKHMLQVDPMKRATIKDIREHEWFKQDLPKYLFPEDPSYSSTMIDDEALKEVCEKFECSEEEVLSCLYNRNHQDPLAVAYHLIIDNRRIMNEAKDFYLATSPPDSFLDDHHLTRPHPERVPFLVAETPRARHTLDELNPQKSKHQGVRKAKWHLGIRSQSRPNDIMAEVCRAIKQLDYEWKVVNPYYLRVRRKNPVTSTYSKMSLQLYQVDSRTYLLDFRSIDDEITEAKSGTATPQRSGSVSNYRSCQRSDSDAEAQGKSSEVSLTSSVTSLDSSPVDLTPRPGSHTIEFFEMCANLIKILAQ
Chain of AMPK complex 1 (containing alpha1beta1gamma1) (Q9Y478 whole entry, the tested form may be a part): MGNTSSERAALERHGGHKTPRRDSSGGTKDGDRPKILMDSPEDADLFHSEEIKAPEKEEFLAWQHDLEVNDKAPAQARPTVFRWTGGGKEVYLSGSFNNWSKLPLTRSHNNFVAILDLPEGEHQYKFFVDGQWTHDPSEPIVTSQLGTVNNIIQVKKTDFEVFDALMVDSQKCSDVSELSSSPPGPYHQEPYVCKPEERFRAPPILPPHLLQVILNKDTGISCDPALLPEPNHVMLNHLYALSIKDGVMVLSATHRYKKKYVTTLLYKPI
Chain of AMPK complex 1 (containing alpha1beta1gamma1) (P54619 whole entry partner, the tested form may be a part): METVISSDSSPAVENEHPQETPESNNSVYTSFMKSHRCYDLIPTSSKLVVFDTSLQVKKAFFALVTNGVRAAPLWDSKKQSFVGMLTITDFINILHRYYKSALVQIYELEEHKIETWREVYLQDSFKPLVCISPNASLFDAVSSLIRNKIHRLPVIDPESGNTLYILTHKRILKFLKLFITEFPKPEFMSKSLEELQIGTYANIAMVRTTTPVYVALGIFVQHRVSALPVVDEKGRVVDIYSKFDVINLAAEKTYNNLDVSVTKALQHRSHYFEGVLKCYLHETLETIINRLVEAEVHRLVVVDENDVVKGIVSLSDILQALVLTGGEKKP

| SMILES | c (control) (metabolic stability), remaining test compound after NADPH independent incubation [1] [%] | t1/2 INVITRO [1] [h] | EC50 [2] [nM] |
| --- | --- | --- | --- |
| O=C(N[C@H]1CC[C@@H](c2ccc(-c3nc4[nH]c(O[C@@H]5CO[C@H]6[C@@H]5OC[C@H]6O)nc4cc3Cl)cc2)CC1)OC1CCCC1 [Example 3, Cyclopentyl (cis)-4-(4-(6-chloro-2-((3R,3aR,6R,6aR)-6-hydroxyhexahydrofuro[3,2-b]furan-3-yloxy)-3H-imidazo[4,5-b]pyridin-5-yl)phenyl)cyclohexylcarbamate] | 117 | 0.317 | 108 |
| O=C(O[C@H]1CC[C@H](c2ccc(-c3nc4[nH]c(O[C@@H]5CO[C@H]6[C@@H]5OC[C@H]6O)nc4cc3Cl)cc2)CC1)N1CCCC1 [Example 9, (trans)-4-(4-(6-Chloro-2-((3R,3aR,6R,6aR)-6-hydroxyhexahydrofuro[3,2-b]furan-3-yloxy)-3H-imidazo[4,5-b]pyridin-5-yl)phenyl)cyclohexyl pyrrolidine-1-carboxylate] | 100 | >2.17 | 17 |
